These results are taken from article PMC3898838, “Design, Synthesis, and Biological Evaluation of an Allosteric Inhibitor of HSET that Targets Cancer Cells with Supernumerary Centrosomes” (Chemistry & Biology, 2013).

Assay [1] has as its target T1, full-length, N-terminal, 6His-tagged human HSET (Homo sapiens, UniProt Q9BW19).
T1 construct: The protocol was optimized for use with full-length, N-terminal, 6His-tagged HSET and KSP; made in house; host or cells: Sf9 insect cells (baculovirus, pFastBac1)
T1 sequence (Q9BW19 1-673): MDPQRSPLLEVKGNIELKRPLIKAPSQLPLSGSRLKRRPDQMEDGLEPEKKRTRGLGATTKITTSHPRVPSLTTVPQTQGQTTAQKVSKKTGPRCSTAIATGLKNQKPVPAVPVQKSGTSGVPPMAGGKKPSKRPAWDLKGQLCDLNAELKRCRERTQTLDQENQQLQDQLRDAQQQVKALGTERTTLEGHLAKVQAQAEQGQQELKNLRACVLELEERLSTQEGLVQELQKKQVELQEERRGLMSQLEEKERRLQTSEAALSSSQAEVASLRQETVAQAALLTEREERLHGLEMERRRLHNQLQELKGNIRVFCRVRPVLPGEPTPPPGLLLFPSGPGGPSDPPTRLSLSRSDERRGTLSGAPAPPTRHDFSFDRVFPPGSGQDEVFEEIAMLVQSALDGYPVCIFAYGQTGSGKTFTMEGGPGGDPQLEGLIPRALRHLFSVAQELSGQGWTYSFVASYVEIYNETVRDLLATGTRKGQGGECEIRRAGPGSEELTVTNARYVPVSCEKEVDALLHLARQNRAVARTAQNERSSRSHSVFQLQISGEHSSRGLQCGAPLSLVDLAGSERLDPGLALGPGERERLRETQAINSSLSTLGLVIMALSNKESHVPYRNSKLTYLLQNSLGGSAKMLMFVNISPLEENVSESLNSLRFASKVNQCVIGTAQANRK
The assay is described as follows: In vitro enzymatic ATPase assay (ADP-Glo), MT-stimulated activity. In kind it is biochemical. From the text:
The similarity decreases to 56% in the loop 5 binding cleft alone (residues 422–432; Figure 1A). Given the high degree of similarity between the proteins, and the potential for selective binding in the loop 5 cleft, the chemogenomics principle that similar proteins bind similar ligands was applied to HSET and KSP, and an in silico model for HSET binding was developed based on nearly 500 existing inhibitors of KSP in the ChEMBL database (see Experimental Procedures for details; [Klabunde, 2007]). Using the model parameters, we selected 200 compounds (in silico) from 20 million possibilities and further triaged them into 50 ligands that scored highest in the bioactivity model. We acquired and tested these ligands for in vitro activity using an ADP-Glo enzymatic assay (see Experimental Procedures for details; Figure 1B).
The protocol was optimized for use with full-length, N-terminal, 6His-tagged HSET and KSP, and measured the MT-stimulated activity of the proteins. Inhibition of the […] of HSET/KSP was observed spectrophotometrically by coupling the hydrolysis of ATP to oxidation of NADH via pyruvate kinase/lactate dehydrogenase reactions. The assay was initiated by […] an assay mixture containing the following components (final concentration): 6 nM protein, 0.07 mg/ml MTs (University Biologicals), […], 2 mM ATP, 2.7 mM MgCI, 1 mM phospho(enol)-pyruvate, 0.2 mM NADH, 50 μg/ml lactate dehydrogenase, 100 μg/ml pyruvate kinase, and various concentrations of inhibitor all in 50 mM Na PIPES (pH 6.8) at 37°C. The ADP-Glo detection assay (Promega) was performed as described in the manufacturer’s instructions. All compound additions were performed using a multidrop BioMek Nxp (Beckman Coulter). Plates were read using a Pherastar microplate reader (BMG Labtech).

For assay [2], the system named is N1E-115 cells. Briefly: IncuCyte live-cell imaging, proliferation. Type of assay: cell-based, mouse. The settings on record: N1E-115, 100-350 μM; p = 0.0192 control vs 150 μM. From the text: In order to ascertain whether CW069 could more broadly reduce proliferation in a range of cancer cells, we carried out IncuCyte live-cell imaging on N1E-115 cells and BT549 (with lower but marked centrosome amplification) and MCF-7 (with normal centrosome numbers) breast cancer cells. Cells were imaged for 21 hr prior to treatment with DMSO control (0.2%) and various concentrations of CW069, and then imaged for a further 36 hr. […] It could also be due to another direct or indirect effect, and the role of HSET in the survival of cancer cells with normal centrosome numbers remains to be fully understood.
NHDF cells were obtained from PromoCell, and the N1E-115 and HeLa cells were obtained from ATCC/LGC Standards. The BT549, MCF-7 and MDA-MB-231 cells were kind gifts from the Caldas laboratory (CRUK Cambridge Institute) and were originally obtained from ATCC/LGC. All human cells were verified by STR genotyping and all tested negative for mycoplasma. […] Fluorescence was quantified using an Infinite 200 PRO plate-reader (Tecan) at a wavelength of 545 nm. […]
For live-cell imaging, plated cells were imaged prior to treatment for 24 hr and then after treatment for 72 hr. […] Data were analyzed as the percentage of original cell confluency in order to directly compare each compound treatment with the DMSO control.

Turning to `O=C(O)c1cc(I)ccc1NC(=O)[C@H](Cc1ccccc1)NCc1ccccc1` [CW069], it took 75 ± 20 µM to reach half-maximal inhibition in assay [1] (concentrations up to 250 μM, mean ± SD) (IC50). The “selectivity for HSET over KSP” value in assay [1] (from IC50 values, HSET vs KSP) was approximately 4 fold. Also, in assay [2], the cell proliferation result is “reduction in cell proliferation”.
